From US8088791B2, “Antibacterial agents” (Biots Scientific Management Pty Ltd, priority 2006, dated 2012) come the findings set out here.

In brackets after ≈: the same amount, converted by molar mass. Read-outs that look alike come from different tables or passages of the source.

Data set [1] relates to Staphylococcus aureus ATCC29213. Kind of data set: Minimum Inhibitory Concentration (MIC) testing, broth microdilution, Staphylococcus aureus. The class given is cell-based. The note with it: Staphylococcus aureus ATCC29213; read-out: Staphylococcus aureus MICs Activity. An outline of the steps: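 Broth microdilution per NCCLS M7-A5 in Mueller Hinton broth, with compound in 1.6% DMSO and inoculum at OD 0.09 diluted 1:100. Plates incubated 16–20 h at 37°C. MIC is the lowest concentration with no visible growth; scored A ≤8, B 16–64, C >64 μg/ml.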
A general note: Broth dilution looks for growth in wells or tubes with falling amounts of substance.

For data set [2], the system named is Bacillus subtilis 168CA. As to the kind of experiment: Minimum Inhibitory Concentration (MIC) testing, broth microdilution, Bacillus subtilis. The class given is cell-based. The note with it: Bacillus subtilis 168CA; read-out: Bacillus subtilis MICs Activity. Put shortly:
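MICs were scored A (≦8 μg/ml), B (16–64 μg/ml) or C (>64 μg/ml), read as the lowest concentration preventing visible growth by eye and spectrophotometry. Plates incubated overnight (16–20 h) at 37 °C, inoculum OD 0.09 diluted 1:100 in 2× broth, per NCCLS guidelines.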

Data set [3] has as its system various bacterial species. As to the kind of experiment: Minimum Inhibitory Concentration (MIC) testing, broth microdilution, other bacterial species. The class given is cell-based. How it is done: Compounds of this invention were tested for antimicrobial activity by susceptibility testing in liquid media. MICs for compounds against each strain were determined by a broth microdilution method according to the National Committee for Clinical Laboratory Standards (NCCLS) guidelines. (NCCLS. 2000. Methods for dilution antimicrobial susceptibility tests for bacteria that grow aerobically—fifth edition. Approved standard M7-A5. NCCLS, Wayne, Pa.)
Briefly, test compounds are prepared in 100 μl of 1.6% DMSO solution in multiwell plates. Several bacterial colonies from a freshly streaked plate are transferred to an appropriate rich broth, such as Mueller Hinton. The cell suspension is adjusted to an optical density of 0.09 and further diluted 1:100 with warm 2× broth. This cell suspension is dispensed into the wells containing compound solution so that the final volume is 200 μl. The plates are incubated overnight (16-20 hours) at 37° C. and turbidity is scored by eye and quantified spectrophotometrically. The MIC is defined as the lowest concentration inhibiting visible growth.
Some of the Examples were also tested for activity against other bacterial species. […] Activities were again scored as ‘A’ if the MIC was ≦8 micrograms/ml, ‘B’ if the MIC was 16 to 64 micrograms/ml and ‘C’ if the MIC was greater than 64 micrograms/ml.

What is called melting point is the temperature, or range, at which the solid turns liquid. Regarding `C#CCCCCCCCCCCOc1cccc(C(N)=O)c1` [Example 66, 3-(11-Dodecynyloxy)benzenecarboxamide], the melting point is 106 to 108 °C. Also, the MIC in data set [1] is less than 8 µg/mL. The MIC in data set [2] was less than 8 µg/mL.

The compound `NC(=O)c1cccc(OCc2cccc(O)c2)c1` [Example 173, 3-[(3-Hydroxybenzyl)oxy]benzenecarboxamide] gave a melting point of 122 to 123 °C. For the same compound, the MIC in data set [1] is greater than 64 µg/mL. Moreover, the MIC in data set [2] was greater than 64 µg/mL.

`CCCCOC(=O)C=CCOc1ccc(F)c(C(N)=O)c1F` [Example 180, Butyl 4-[3-(aminocarbonyl)-2,4-difluorophenoxy]-2-butenoate]: the melting point is less than 40 °C. The MIC in data set [1] lay in the range of 16 to 64 µg/mL (≈ 51.1 to 204 µM). The MIC in data set [2] is less than 8 µg/mL.

`CCCCCCOC(=O)COc1ccc(F)c(C(N)=O)c1F` [Example 89, Hexyl 2-[3-(aminocarbonyl)-2,4-difluorophenoxy]acetate] came in with a melting point of 108 °C. Also, the MIC in data set [1] was less than 8 µg/mL. Moreover, the MIC in data set [2] was less than 8 µg/mL.

`C#CCCCCCCCCOc1cccc(C(N)=O)c1` [Example 67, 3-(9-Decynyloxy)benzenecarboxamide] came in with a melting point of 111 to 112 °C. Further, the MIC in data set [1] is less than 8 µg/mL. Besides, the MIC in data set [2] was less than 8 µg/mL.

`NC(=O)c1c(F)ccc(OCc2ccc3ccccc3n2)c1F` [Example 200, 2,6-Difluoro-3-(2-quinolinylmethoxy)benzenecarboxamide] gave a melting point of 216 to 218 °C. Also, the MIC in data set [1] lay in the range of 16 to 64 µg/mL (≈ 50.9 to 204 µM). In addition, the MIC in data set [2] was less than 8 µg/mL.

`N#CCCCCCCCCCOc1cccc(C(N)=O)c1` [Example 93, 3-[(9-Cyanononyl)oxy]benzenecarboxamide] yielded a melting point of 96 to 97 °C. The MIC in data set [1] lay within 16 to 64 µg/mL (≈ 55.5 to 222 µM). For the same compound, in data set [2], the MIC is less than 8 µg/mL.

Regarding `NC(=O)c1cccc(OCCCCC/C=C\c2ccc(Cl)o2)c1` [Example 64, 3-{[(Z)-7-(5-Chloro-2-furyl)-6-heptenyl]oxy}benzenecarboxamide], the melting point was 53 to 56 °C. Besides, in data set [1], the MIC was less than 8 µg/mL. Also, in data set [2], the MIC is less than 8 µg/mL.

On to `CCCC/C=C\CCCCOc1cccc(C(N)=O)c1` [Example 45, 3-[(Z)-5-Decenyloxy]benzenecarboxamide], for which the melting point lay within 98 to 100 °C. Moreover, in data set [1], the MIC is less than 8 µg/mL. For the same compound, the MIC in data set [2] was less than 8 µg/mL.

Regarding `NC(=O)c1c(F)ccc(OCc2cc3cc(C(F)(F)F)ccc3s2)c1F` [Example 208, 2,6-Difluoro-3-[5-(trifluoromethyl)-1-benzothiophen-2-yl]methoxybenzenecarboxamide], the melting point was 150 to 152 °C. Also, the MIC in data set [1] is less than 8 µg/mL. Further, the MIC in data set [3] (Bacillus cereus, ATCC14579, read-out: MIC Activity Bacillus cereus ATCC 14579) was less than 8 µg/mL. The MIC in data set [3] (Staphylococcus saprophyticus, ATCC15305, read-out: MIC Activity Staphylococcus saprophyticus ATCC 15305) was less than 8 µg/mL. The MIC in data set [2] is less than 8 µg/mL.

As for `CCCCOC(=O)CCCOc1ccc(F)c(C(N)=O)c1F` [Example 181, Butyl 4-[3-(aminocarbonyl)-2,4-difluorophenoxy]butanoate], the melting point is 53 to 55 °C. Also, the MIC in data set [1] lay within 16 to 64 µg/mL (≈ 50.7 to 203 µM). Further, the MIC in data set [2] is less than 8 µg/mL.

As to `CCCc1ccc2nc(COc3ccc(F)c(C(N)=O)c3F)sc2c1` [Example 231, 2,6-Difluoro-3-[(6-propyl-1,3-benzothiazol-2-yl)methoxy]benzenecarboxamide], the melting point is 244 to 246 °C. Moreover, in data set [1], the MIC is less than 8 µg/mL. In addition, in data set [2], the MIC is less than 8 µg/mL.

`CCCCCCOc1ccc(F)c(C(N)=O)c1Cl` [Example 77, 2-Chloro-6-fluoro-3-(hexyloxy)benzenecarboxamide] registered a melting point of 66 to 68 °C. Moreover, the MIC in data set [1] was 16 to 64 µg/mL (≈ 58.5 to 234 µM). Besides, the MIC in data set [2] was 16 to 64 µg/mL (≈ 58.5 to 234 µM).

`COC(=O)C=CCOc1ccc(F)c(C(N)=O)c1F` [Example 179, Methyl 4-[3-(aminocarbonyl)-2,4-difluorophenoxy]-2-butenoate] gave a melting point of 122 to 123 °C. In addition, in data set [1], the MIC was greater than 64 µg/mL. Besides, in data set [2], the MIC is greater than 64 µg/mL.

`Cc1cccc2sc(COc3ccc(F)c(C(N)=O)c3F)nc12` [Example 228, 2,6-Difluoro-3-[(4-methyl-1,3-benzothiazol-2-yl)methoxy]benzenecarboxamide] had a melting point of 201 to 202 °C. In data set [1], the MIC lay in the range of 16 to 64 µg/mL (≈ 47.9 to 191 µM). In data set [2], the MIC was less than 8 µg/mL.

As for `C#CCCCCCCOC(=O)COc1ccc(F)c(C(N)=O)c1F` [Example 90, 7-Octynyl 2-[3-(aminocarbonyl)-2,4-difluorophenoxy]acetate], the melting point was 130 to 132 °C. Besides, the MIC in data set [1] was less than 8 µg/mL. Further, the MIC in data set [2] was less than 8 µg/mL.

The compound `CCCCCCCCCOc1cc(C(N)=O)ccn1` [Example 94, 2-(Nonyloxy)isonicotinamide] returned a melting point of 108 to 110 °C. Besides, the MIC in data set [1] was less than 8 µg/mL. Further, the MIC in data set [2] is less than 8 µg/mL.

Compound `N#CCOc1ccc(F)c(C(N)=O)c1F` [Example 225, 3-(Cyanomethoxy)-2,6-difluorobenzenecarboxamide] came in with a melting point of 122 to 123 °C. For the same compound, the MIC in data set [1] was greater than 64 µg/mL. For the same compound, in data set [2], the MIC was greater than 64 µg/mL.

`NC(=O)c1c(F)ccc(OCc2nc(-c3ccc(O)cc3)no2)c1F` [Example 242, 2,6-Difluoro-3-[3-(4-hydroxyphenyl)-1,2,4-oxadiazol-5-yl]methoxybenzenecarboxamide] gave a melting point of 209 to 210 °C. Besides, the MIC in data set [1] is less than 8 µg/mL. Further, the MIC in data set [3] (Staphylococcus epidermidis, ATCC12228, read-out: MIC Activity Staphylococcus epidermidis ATCC 12228) was less than 8 µg/mL. For the same compound, the MIC in data set [3] (Staphylococcus haemolyticus, ATCC29970, read-out: MIC Activity Staphylococcus haemolyticus ATCC 29970) is less than 8 µg/mL. The MIC in data set [2] was less than 8 µg/mL.

With `Cc1cncc(COc2cccc(C(N)=O)c2)c1` [Example 170, 3-[(5-Methyl-3-pyridinyl)methoxy]benzenecarboxamide], the melting point is 152 to 154 °C. Moreover, the MIC in data set [1] is greater than 64 µg/mL. Moreover, the MIC in data set [2] is greater than 64 µg/mL.

`CCCCCCOc1c(F)cc(F)c(C(N)=O)c1F` [Example 79, 2,4,6-Trifluoro-3-(hexyloxy)benzenecarboxamide] gave a melting point of 89 to 90 °C. Further, the MIC in data set [1] is 16 to 64 µg/mL (≈ 58.1 to 232 µM). Also, in data set [2], the MIC lay in the range of 16 to 64 µg/mL (≈ 58.1 to 232 µM).

The compound `CCCCCCCCCOc1ccc(Cl)c(C(N)=O)c1F` [Example 76, 6-Chloro-2-fluoro-3-(nonyloxy)benzenecarboxamide] returned a melting point of 75 to 77 °C. In addition, in data set [1], the MIC was less than 8 µg/mL. Further, the MIC in data set [2] is less than 8 µg/mL.

`NC(=O)c1cccc(OCCCCC/C=C\c2ccsc2)c1` [Example 62, 3-{[(Z)-7-(3-Thienyl)-6-heptenyl]oxy}benzenecarboxamide]: the melting point lay within 71 to 73 °C. Further, the MIC in data set [1] is less than 8 µg/mL. In data set [2], the MIC was less than 8 µg/mL.

In turn, `COc1ccc2nc(COc3ccc(F)c(C(N)=O)c3F)sc2c1` [Example 224, 2,6-Difluoro-3-[(6-methoxy-1,3-benzothiazol-2-yl)methoxy]benzenecarboxamide] showed a melting point of 190 to 192 °C. Also, the MIC in data set [1] is greater than 64 µg/mL. Moreover, in data set [2], the MIC was 16 to 64 µg/mL (≈ 45.7 to 183 µM).

On to `NC(=O)c1c(F)ccc(OCc2ccc3sccc3c2)c1F` [Example 201, 3-(1-Benzothiophen-5-ylmethoxy)-2,6-difluorobenzenecarboxamide], for which the melting point fell in the range of 146 to 148 °C. Also, in data set [1], the MIC lay in the range of 16 to 64 µg/mL (≈ 50.1 to 200 µM). In data set [2], the MIC was less than 8 µg/mL.

For `CCCCCCCCCOc1ccc(F)c(C(N)=O)c1Cl` [Example 78, 2-Chloro-6-fluoro-3-(nonyloxy)benzenecarboxamide], the melting point fell in the range of 64 to 66 °C. Besides, the MIC in data set [1] is less than 8 µg/mL. For the same compound, the MIC in data set [2] was less than 8 µg/mL.

Consider `C#CCCCCCCCOc1cccc(C(N)=O)c1` [Example 65, 3-(8-Nonynyloxy)benzenecarboxamide], for which the melting point was 82 to 83 °C. Further, the MIC in data set [1] was less than 8 µg/mL. Further, the MIC in data set [2] was less than 8 µg/mL.

Regarding `CC1CC1COc1cccc(C(N)=O)c1` (stereo not shown) [Example 169, 3-[(2-Methylcyclopropyl)methoxy]benzenecarboxamide], the melting point lay in the range of 119 to 121 °C. In data set [1], the MIC was greater than 64 µg/mL. In addition, the MIC in data set [2] is greater than 64 µg/mL.

In turn, `NC(=O)c1c(F)ccc(OCc2nc3ccc(OC(F)(F)F)cc3s2)c1F` [Example 230, 2,6-Difluoro-3-[6-(trifluoromethoxy)-1,3-benzothiazol-2-yl]methoxybenzenecarboxamide] registered a melting point of 174 to 175 °C. In data set [1], the MIC is less than 8 µg/mL. Moreover, the MIC in data set [2] was less than 8 µg/mL.
